Assay [1] relates to HeyA8 ovarian cancer cells. The class given is cell-based.
Protocol: Cell transit times were determined in accordance with the approach described above. […] In the testing, Phosphate Buffered Saline (PBS) suspended HeyA8 ovarian cancer cells were driven through the device using a pressure pump controller (Fluigent MFCS-EZ) at 80 mbar. Three suspensions of cells with varying stiffness were prepared. The first sample was exposed to 1 μM Latrunculin A, abbreviated as LatA, (Sigma-Aldrich), an Actin polymerization inhibitor, for 60 mins at 37° C. to reduce the cell stiffness. The second sample was left untreated. […] In operation, the sensor network 620 was driven with an 500 kHz AC signal and the electrical sensor data from the chip was recorded using a lock-in-amplifier (Zurich Instruments HF2LI) and sampled into a computer. The cell size and the transit time were both measured from the sensor signal peak amplitude and the time delay between the code waveforms corresponding to sensor pairs, respectively.
Assay [2] deals with MDA-MB-231 (human mammary adenocarcinoma) cells. The class given is cell-based.
Protocol: For each population in our experiments, we used the computed sensor signal amplitude and constriction transit time as measures of the cell size and its stiffness, respectively (see FIGS. 10A-10C).
Because the data on different cell populations were acquired under the same driving pressure and electrical excitation, we could directly compare the characterization results (see FIG. 10D).
For the single frequency device, two different sample of MDA-MB-231 cells were treated with Latrunculin A (Sigma-Aldrich; St. Louis, MO) and formaldehyde (Sigma-Aldrich; St. Louis, MO) and suspended in Phosphate Buffered Saline (PBS). […] Prior to experiments, the cells were trypsinized for two minutes, pelleted, resuspended in PBS and mixed gently to dissociate cell clusters that may have formed. Finally, the suspension was diluted with PBS to a cell concentration of 1.5×10^6 cells/mL. For the LatA exposure, 100 μg of LatA in lyophilized powder form was reconstituted in dimethyl sulfoxide (DMSO), then diluted in PBS to form a 5.9 nM stock solution. The trypsinized and pelleted MDA-MB-231 cells were mixed with 1 mL of 1 nM LatA and incubated at 37° C. for 60 mins. The cells were pelleted once more and resuspended in PBS. […] The trypsinized and pelleted MDA-MB-231 cells were mixed with diluted 4% PFA and incubated at 37° C. for 10 mins. The cells were pelleted once more and resuspended in PBS.
During the above-described experiment, the cell sample was loaded into a sealed 10 mL laboratory tube and pneumatically driven through the device using a software-controlled pressure regulator (MFCSEZ, Fluigent). The driving pressure was 100 mbar for both single-frequency and multi-frequency devices. In the case of the single-frequency device, the electrical networks were excited using a 800 mVpp, 500 kHz sinusoidal signal generated by the lock-in amplifier (HF2LI, Zurich Instruments). For the multi-frequency device, the 500 kHz and 900 kHz sine signals were generated by the lock-in amplifier, whereas the 1300 kHz signal was obtained using a waveform generator (33612A, Keysight), all at 800 mVpp.

The record followed here is patent US12233413B2, “Massively parallel microfluidic cell analyzer for high throughput mechanophenotyping” (priority 2018, dated 2025).

Read-outs that look alike come from different tables or passages of the source.

Turning to `C=O` [Formaldehyde], the “longer transit time of treated cells compared to the untreated cells” value in assay [1] was determined as 36%. In assay [2], the “average constriction transit time of treated cells” value worked out at 54.01 ms.

For the molecule `C/C1=C/C(=O)O[C@@H]2C[C@@H](CC[C@H](C)/C=C\C=C\CC1)O[C@@](O)([C@@H]1CSC(=O)N1)C2` [LatA, Latrunculin A], the “transit time of the untreated cells longer than that of the LatA treated cells, on average” value in assay [1] (HeyA8 cells in PBS, 1 μM Latrunculin A, 60 mins at 37° C., driven at 80 mbar) is 34%. The “less constriction transit time than untreated cells, on average” value in assay [2] (MDA-MB-231, 1 nM LatA 60 mins at 37° C., 100 mbar) amounted to 8.9%. Moreover, the “average constriction transit time of treated cells” value in assay [2] (MDA-MB-231, 100 mbar, 1.5×10^6 cells/mL, LatA 1 nM 60 mins 37° C., fixation with diluted 4% PFA 10 mins 37° C.) worked out at 42.35 ms.
